The values below come from patent US7041638B2, “Surfactant prevention of vaginitis and lung complications from cancer chemotherapy” (The Penn State Research Foundation, priority 2001, dated 2006).

Read-outs that look alike come from different tables or passages of the source.

Common to all, as to type: cell-based, human
In series [1] the test system is THP-1 cells. Description: Cytokine production by differentiated THP-1 cells after SP-A, bleomycin or Ara-C (ELISA). The following applies: for TNF-α level in culture medium: mean±SEM, FIG. 3A. The method, then: (§1) The THP-1 cell line was obtained from the American Type Culture Collection. Cells were grown in RPMI 1640 medium (Sigma) with 0.05 mM 2-mercaptoethanol containing 10% fetal calf serum (FCS; Summit Biotechnology) at 37° C. in an atmosphere of 5% CO2. The cells were split periodically and used at passages 8–15 in the various experiments. After differentiation with 10^−8 M Vitamin D3 for 72 h, cells were pelleted and washed with cold PBS. The cell pellet was then resuspended in complete RPMI 1640 medium with 10% FCS at a density of 2×10^6 cells/ml in 24-well culture plates, and exposed to bleomycin and SP-A. Cell viability was determined by trypan blue exclusion. […] Incubations were terminated by pelleting the cells. Supernatants and/or cell pellet were stored at −80° C. until assayed.
(§2) After differentiation with 10^−8 M of vitamin D3 for 72 h, THP-1 cells were pelleted and washed as described above. Cells at a density of 2×10^6 cells/ml were incubated at 24 well culture plates. For dose-response study, cells were stimulated with bleomycin at concentrations ranging from 0–100 mU/ml. Time-dependent secretion of cytokines following bleomycin treatment was studied from 0–24 h with 5 and 50 mU/ml of bleomycin. In experiments where the combined effects of SP-A and bleomycin were examined, SP-A (10 μg/ml) and bleomycin (5 or 50 mU/ml) were added to cells simultaneously, unless otherwise noted. After treatment, the culture medium was collected at 4 h or 6 h for the ELISA assay of cytokine production and cells were harvested at 2 h or 4 h for cytokine mRNA analysis.
Cytosine arabinoside (Ara-C, Cytosar-U, Pharmacia & Upjohn) was included in some experiments to confirm the specificity of the effect of bleomycin on proinflammatory cytokine production by THP-1 cells. Ara-C is another antineoplastic agent with known cytotoxicity. […] Ara-C, at concentrations ranging from 0.1 to 5 mM in culture medium, was used for evaluating the effect of Ara-C on TNF-α. The conditions employed in the Ara-C experiments were the same as those in bleomycin studies except that only a 4 h time point was done.
The ELISA assays for TNF-α, IL-8, and IL-1β (OptEIA Human ELISA Sets, Pharmingen) were performed according to the instructions recommended by the manufacturer. The ELISA kits were capable of measuring levels of 7.8–500 pg/ml for TNF-α, 6.2–400 pg/ml for IL-8 and 20–1000 pg/ml for IL-1β. A reference curve for each of these cytokines was obtained by plotting the concentration of several dilutions of standard protein versus the corresponding absorbance.
(In general: In an ELISA, binding on a coated surface is turned into a signal by an enzyme label.)

In series [2] the test system is THP-1 cells. Description: Cytokine mRNA in THP-1 cells by ribonuclease protection assay (RPA). As to conditions: for relative intensity of TNF-α mRNA / IL-8 mRNA level: SP-A 10 μg/ml and/or bleomycin 5 mU/ml, normalized to L32; for relative intensity of TNF-α mRNA: FIG. 4A; for IL-8 mRNA level: 4 h, FIG. 4B. The method, then: as §2
Total RNA was isolated from THP-1 cells at 2 h or 4 h after treatment by using Rneasy Mini Kits (QIAGEN) according to the protocol of the RNeasy Mini Handbook. Cytokine mRNA quantification was performed by ribonuclease protection assay (RPA). RiboQuant™ Ribonuclease RPA Starter Package and a Customized Human Template Set (Pharmingen) were used to analyze TNF-α, IL-1β, and IL-8 mRNA in one assay. The customized template set contains DNA templates that can be used for T7 RNA polymerase-directed synthesis of α-^32P-UTP-labeled, anti-sense RNA probes. These can be hybridized to TNF-α, IL-1β, and IL-8 mRNA. Templates for the L32 and GAPDH housekeeping genes were also included to allow for normalization of sampling or technical error. Aliquots of 2 μg of total RNA were hybridized with radiolabeled probes at 56° C. for 16 h. RNase treatment followed, resulting in degradation of single-stranded RNA and free probes. After inactivation and precipitation, protected probes were resolved by a 5% polyacrylamide-urea sequence gel electrophoresis and visualized by autoradiography. Densities of the protected bands were quantified by soft laser densitometry. The mRNA level is expressed as the ratio of the densitometric value of each cytokine mRNA to that of the L32 or GAPDH mRNA.

In series [3] the test system is THP-1 cells. As to the kind of experiment: Cell viability by trypan blue exclusion. The method, then: as §1
Where [4] appears, read: SP-A 10 μg/ml and/or bleomycin 5 mU/ml, 4 h.

As to `Nc1ccn([C@@H]2O[C@H](CO)[C@@H](O)[C@@H]2O)c(=O)n1` [Ara-C, Cytosine arabinoside], in the series on THP-1 cells [1] (Ara-C 0.1 to 5 mM, 4 h, FIG. 1D), the “TNF-α level after Ara-C treatment versus control” value was “did not differ from that of control”.

As for “SP-A: native human surfactant protein A purified from bronchoalveolar lavage of alveolar proteinosis patients”, the “TNF-α level in culture medium” value with THP-1 cells [1] (setting [4]) stood at 86.6 ± 11.5 pg/mL. The “relative intensity of TNF-α mRNA” value with THP-1 cells [2] (2 h) came out at 0.51±0.27. For the same compound, the “IL-8 mRNA level” value with THP-1 cells [2] amounted to 1.26±0.14. Further, in the series on THP-1 cells [3], the “effect on the viability of THP-1 cells” value was “neither bleomycin nor SP-A appeared to have any effect”.

Take bleomycin: the “lowest bleomycin concentration that increased TNF-α level” value with THP-1 cells [1] (4 h, dose range 0–100 mU/ml, FIG. 1A) is reported as 0.5 mU/ml. In addition, the “lowest bleomycin concentration that increased IL-8 level” value in the series with THP-1 cells [1] (4 h, dose range 0–100 mU/ml, FIG. 1B) came out at 0.5 mU/ml. Besides, the “bleomycin concentration needed to increase IL-1β level significantly” value in the series with THP-1 cells [1] (6 h, dose range 0–100 mU/ml, FIG. 1C) is recorded as 50 mU/ml. The “TNF-α level in culture medium” value in the series on THP-1 cells [1] (setting [4]) worked out at 45.9 ± 10.6 pg/mL; in the series on THP-1 cells [1] (bleomycin 50 mU/ml with or without SP-A 10 μg/ml, 4 h), 82.1 ± 17.3 pg/mL. Moreover, the “time to maximum TNF-α level” value with THP-1 cells [1] (bleomycin 5, 50 mU/ml, depending on dose, FIG. 2A) is 4 to 6 h. Besides, in the series with THP-1 cells [1] (bleomycin 5, 50 mU/ml, 0–24 h, FIG. 2A), the “time at which increase of TNF-α levels was detected” value is reported as 3 h. The “time at which TNF-α returned to background levels” value with THP-1 cells [1] (bleomycin 5, 50 mU/ml, FIG. 2A) is on record as 24 h. Also, the “time to maximal IL-8 level” value in the series with THP-1 cells [1] (bleomycin 5, 50 mU/ml, FIG. 2B) is on record as “around 5 h”. Also, the “time to peak IL-1β level” value in the series with THP-1 cells [1] (bleomycin 5, 50 mU/ml, FIG. 2C) was found to be 10 h. Moreover, the “relative intensity of TNF-α mRNA” value in the series with THP-1 cells [2] (2 h) is given as 0.74±0.20. The “relative intensity of IL-1β mRNA” value in the series with THP-1 cells [2] (2 h, SP-A 10 μg/ml, bleomycin 5 mU/ml, LPS 0.1 ng/ml) is reported as “Very low levels”. In addition, in the series with THP-1 cells [2], the “IL-8 mRNA level” value was found to be 1.02±0.16. For the same compound, in the series on THP-1 cells [3] (conditions employed in this study), the “effect on the viability of THP-1 cells” value is “neither bleomycin nor SP-A appeared to have any effect”.
